Reference: US11612572B2, “Treatment of schizophrenia using beta-caryophyllene and CB2 receptor agonists” (priority 2012, dated 2023)
Entries after “also recorded” stand apart in the source; their conditions may differ.

Key:
[1] = tested on: mouse model of schizophrenia; assay: Open-field test (ambulation/crossing, rearing, grooming)
[2] = molecular target: T1, cannabinoid receptor CB2 (Homo sapiens, UniProt P34972); details: cited from earlier work
[3] = molecular target: T1, cannabinoid receptor CB2; details: at CB2; cited from earlier work
[4] = tested on: mouse model of schizophrenia; assay: Behavior in the Phenotyper cage; assay type: in vivo, mice; details: Study II
[5] = tested on: mouse model of schizophrenia; assay: Prepulse inhibition (PPI) of the startle reflex; details: Study I, age 8 weeks
[6] = tested on: MGL; assay: Expression of MGL in brain tissue; assay type: in vivo; details: PCP vs control, 2 week old mice
Text: Expression of MGL in 2 Week Old Mice

[7] = Body weight of mice in the neonatal PCP model
[8] = tested on: CB1 receptor; assay: Expression level of CB1 receptor in brain tissue; assay type: in vivo; details: PCP-treated vs control mice, 9 days old
Method: (§1) Expression Level of CB1 and CB2 Receptor in Mice at 9 Days Old (mRNA) or 2 Weeks Old (Protein)
(§2) Brain tissue of control mice (saline treated) and mice treated with PCP were analyzed in the left and right cortex and brain stem (FIGS. 7A-I; FIG. 8. Results from the cortex and brain stem were reported by the Inventors in 2011 (Anavi-Goffer et al).

[9] = tested on: mouse model of schizophrenia; assay: Elevated Plus Maze test; details: Study I, age 13 weeks
[10] = tested on: CB2 receptor; assay: Expression level of CB2 receptor in brain tissue; assay type: in vivo, mice; details: for mRNA expression of CB2 receptor: PCP-treated vs control mice, 9 days old
Method: as §1, §2

[11] = tested on: GAD67; assay: Expression level of GAD67 in brain tissue; assay type: in vivo, mice; details: PCP vs control; for GAD67 protein level: 2 weeks old; for GAD67 mRNA level: 9 days old
Method: Expression Level of GAD67 in Mice at 9 Days Old (mRNA) or 2 Weeks Old (Protein)
Brain tissue of control mice and mice treated with PCP were analyzed for GAD67, a neurochemical marker for schizophrenia (FIG. 9A-F).

[12] = Study III: male mice, PND 17, PCP 5 mg/kg, 1 h later BCP 10 mg/kg or BCP+AM630 10 mg/kg each, DMSO-based vehicle

T1 sequence (P34972 whole entry): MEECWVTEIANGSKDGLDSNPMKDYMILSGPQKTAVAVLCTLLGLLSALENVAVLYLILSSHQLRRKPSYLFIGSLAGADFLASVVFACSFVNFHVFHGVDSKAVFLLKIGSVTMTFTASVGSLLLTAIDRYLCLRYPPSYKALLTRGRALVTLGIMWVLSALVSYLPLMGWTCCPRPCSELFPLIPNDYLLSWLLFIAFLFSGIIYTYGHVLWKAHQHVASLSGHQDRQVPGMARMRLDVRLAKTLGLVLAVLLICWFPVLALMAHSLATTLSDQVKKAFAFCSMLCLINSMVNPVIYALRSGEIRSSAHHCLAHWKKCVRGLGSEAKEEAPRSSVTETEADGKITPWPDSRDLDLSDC

## COc1ccc(C(=O)c2c(C)n(CCN3CCOCC3)c3cc(I)ccc23)cc1 [AM630, 6-Iodopravadoline, reference compound]
[1]; Study III: PCP+BCP+AM630 group, male mice, PND 17
  open-field behaviors compared with PCP-treated mice: not significantly different from these of PCP-treated mice
[1]; [12]
  ambulation: reversed the effects of BCP on ambulation and rearing behaviors; also recorded: reversed the effect of BCP on PCP-induced inhibition of ambulation and rearing
  rearing: reversed the effects of BCP on ambulation and rearing behaviors; also recorded: reversed the effect of BCP on PCP-induced inhibition of ambulation and rearing
[2]
  activity at CB2 receptor: potent and selective inverse agonist
[3]
  Ki: 0.0321 µM

## c1ccc(C2(N3CCCCC3)CCCCC2)cc1 [PCP, Phencyclidine, reference compound]
[1]; Study I, ethanol-based vehicle, PND 17 (FIG. 2B)
  rearing: significantly inhibited both ambulation and rearing behaviors
[1]; Study I: PCP 5 mg/kg, BCP 10 mg/kg, ethanol-based vehicle, PND 17 (FIG. 2A)
  ambulation (exploration): significantly inhibited both ambulation and rearing behaviors
[1]; Study I, PND 17, females
  ambulation: more sensitive to the effect of PCP
  rearing behavior: more sensitive to the effect of PCP
[1]; Study I, PND 17, males
  locomotor activity: appeared to be less sensitive to the treatment of PCP or PCP+BCP
[1]; Study I, PND 35-37, females (FIGS. 4E, 4F)
  rearing and exploration behaviors: no differences in rearing and exploration behaviors were seen between the different groups
[1]; Study I, PND 35-37, males (FIG. 4C)
  locomotor activity: significantly increased the locomotor activity compared with vehicle treatment
[1]; Study II: PCP 5 mg/kg, PND 16 (FIG. 13B)
  ambulation: significantly inhibited
[1]; Study II: PCP 5 mg/kg, PND 16 (FIG. 13C)
  rearing: significantly inhibited
[1]; [12]
  ambulation: significantly inhibited both ambulation and rearing behaviors
  rearing: significantly inhibited both ambulation and rearing behaviors
[4]; PND 91, females and males
  frequency of entries to the wheel: reduced the frequency of entries to the wheel
  time spent in the Hidden Zone: increased the time spend at the Hidden Zone
[4]; PND 91, males (FIG. 20D)
  frequency of entries to the hidden zone: appeared to reduce the frequency of entries to the Hidden Zone in males
[4]; PND 105
  frequency of entries to the hidden zone: increased the frequency of entries to the Hidden Zone
[5]; females (FIG. 5D)
  % inhibition (ability to adjust to sound stimulus, PPI): No significant difference
[5]; males (FIG. 5B)
  % inhibition (ability to adjust to sound stimulus, PPI): significant reduction in their ability to adjust to sound stimulus
[6]; Western blotting (FIG. 10C)
  protein level of MGL: reduction in protein level of MGL
[6]; left cortex (FIG. 10A)
  mRNA levels of MGL: decreased
[7]; Study I, ethanol-based vehicle, PND 7 / first week of life (FIG. 1B)
  body weight: induced a significant reduction in body weight
[7]; Study I: PCP 5 mg/kg PND 3-16, BCP 10 mg/kg 1 h after PCP, ethanol-based vehicle, each day of injection PND 3-17 (FIG. 1A)
  body weight: significantly reduce the body weight
[7]; Study I, PND 17 (FIG. 2C)
  body weight: still significant
[7]; Study I, PND 35-37, males (FIG. 4A)
  body weight: no significant difference in male body weight between the groups
[7]; Study II: PCP 5 mg/kg, days 3, 5, 7, 10, 12, 15 and 17, male and female (FIG. 13A)
  body weight: significantly reduced body weight
[7]; Study II, PND 63 (FIG. 14B)
  body weight: no significant difference in the body weight between vehicle-treated mice and PCP-treated mice
[8]; brain stem
  mRNA expression of CB1 receptor: significant increase
[8]; left or right cortex
  mRNA expression of CB1 receptor: No significant increase
[9]; females (FIGS. 6E, 6G)
  time spent in the distal end of the opened arm (anxiety): reduced the time spent in the distal end of the opened arm; also recorded: induced anxiety in female mice
[9]; males (FIGS. 6F, 6H)
  time spent in the distal end of the opened arm (anxiety): increased the time spent in the distal end of the opened arm; also recorded: anxiolytic effect in male mice
[10]; brain stem
  mRNA expression of CB2 receptor: significant increase
[10]; left cortex
  mRNA expression of CB2 receptor: significant increase
[10]; right cortex
  mRNA expression of CB2 receptor: no difference between control and PCP-treated mice
[10]; following administration of PCP, different brain areas
  CB2 receptor expression level: selectively down-regulated in different brain areas
[10]; mice neonatally treated with phencyclidine, right cortex and basal ganglia/diencephalon
  putative CB2 receptor expression: up-regulation
[11]; brain stem, Western blotting (FIG. 9C)
  GAD67 protein level: non-significant reduction
[11]; left cortex (FIG. 9A)
  GAD67 protein level: significantly decreased
[11]; right cortex (FIG. 9B)
  GAD67 protein level: did not reach a significant level
[11]; brain stem (FIG. 9F)
  GAD67 mRNA level: increased
[11]; left cortex (FIG. 9D)
  GAD67 mRNA level: no change was found at the mRNA level
[11]; right cortex (FIG. 9E)
  GAD67 mRNA level: no change was seen in the mRNA level
